Our source for the mass density values is the NIST ThermoML archive (doi:10.1016/j.jct.2014.02.005).

For this series the following is noted: 101.33 kPa, Liquid, Vibrating tube method.

Numbers after ± are expanded uncertainties.

On to `CC(=O)O` [acetic acid], for which the mass density amounted to 1055.01 ± 1 kg/m3 (288.2 K), 1043.67 ± 1 kg/m3 (298.2 K) and 1026.72 ± 1 kg/m3 (313.2 K).
As for `Cc1ccccc1` [toluene], the mass density by setting is: (288.2 K) 871.92 ± 1 kg/m3; (298.2 K) 862.49 ± 1 kg/m3; (313.2 K) 848.23 ± 1 kg/m3.
Regarding `O` [water], the mass density (313.2 K) was determined as 992.13 ± 1 kg/m3.

The term mass density denotes the mass of a sample divided by its volume.
